Reference: patent US8741856B2, “Avermectins and milbemycins for the treatment, prevention or amelioration of flavivirus infections” (priority 2009, dated 2014)
Where “and” joins values, the source holds several entries; their conditions need not be identical. Equal entries are not always repeated. Where two headings read alike, the source gives them in different places.

What was measured:
YFV [1] = conditions: rhesus monkey, in vivo; cited from earlier work
DENV type 1 = conditions: rhesus monkeys infected with DENV type 1, therapeutic and prophylactic protocols; cited from earlier work
[2] = test system: Yellow fever virus (YFV) 17D vaccine strain; format: cell-based; conditions: read-out: EC50, anti-YFV, CPE reduction assay
YFV [3] = format: cell-based, Yellow fever virus; conditions: read-out: EC50, anti-YFV, virus yield reduction assay
[4] = test system: Dengue virus (DENV) serotype 2 New Guinea C (NGC) strain; format: cell-based; conditions: read-out: EC50, anti-DENV, virus yield reduction assay
[5] = test system: Dengue subgenomic replicons; assay: Anti-DENV activity in BHK cells containing Dengue subgenomic replicons; format: cell-based, Dengue virus
Modoc (MODV) strain M544 = format: cell-based, Modoc virus; conditions: read-out: EC50, anti-MODV, virus yield reduction assay
JEV strain SA-14 [6] = format: cell-based, Japanese encephalitis virus; conditions: read-out: EC50, JEV, virus yield assay
TBEV strain Oshima 5-10 [7] = format: cell-based, Tick-borne encephalitis virus; conditions: read-out: EC50, TBEV, virus yield assay
JEV strain SA-14 [8] = format: cell-based, Japanese encephalitis virus
TBEV strain Oshima 5-10 [9] = format: cell-based, Tick-borne encephalitis virus
[10] = test system: Bovine viral diharrea virus (BVDV); format: cell-based; conditions: read-out: concentration required to achieve 50% protection from BVDV induced cytopathogenicity
[11] = test system: Coxsackievirus B2 (CVB-2); format: cell-based; conditions: read-out: concentration required to reduce the plaque number by 50%, CVB-2
Poliovirus 1 (Sb-1) = format: cell-based; conditions: read-out: concentration required to reduce the plaque number by 50%, Sb-1
Herpesvirus 1 (HSV-1) = format: cell-based; conditions: read-out: concentration required to reduce the plaque number by 50%, HSV-1
Vaccinia Virus (VV) = format: cell-based; conditions: read-out: concentration required to reduce the plaque number by 50%, VV
[12] = test system: Vesicular Stomatitis Virus (VSV); format: cell-based; conditions: read-out: concentration required to reduce the plaque number by 50%, VSV
[13] = test system: Respiratory Syncytial Virus (RSV); format: cell-based; conditions: read-out: concentration required to reduce the plaque number by 50%, RSV
Reovirus-1 (Reo-1) = format: cell-based; conditions: read-out: concentration required to achieve 50% protection from Reovirus-1 induced cytopathogenicity
[14] = test system: MDBK (Bovine normal kidney) cells
[15] = test system: VERO-76 (Monkey normal kidney) monolayers
[16] = test system: BHK cells (Hamster normal kidney fibroblast)
[17] = previous studies, Guzzo C A et al. 2002; cited from earlier work

## NC(=O)c1ncn([C@@H]2O[C@H](CO)[C@@H](O)[C@H]2O)n1 [ribavirin, 1-beta-D-ribofuranosyl-1,2,4-triazole-3-carboxamide]
YFV [1]
  effect on viremia or survival: no effect on viremia or survival was observed
DENV type 1
  effect on viremia or survival: no effect on viremia or survival was observed

## ivermectin
[2]
  EC50: 7.4 nM and 10.3 nM
YFV [3]
  EC50: 4.9 nM
[4]
  EC50: 710 nM
[5]
  anti-DENV activity in replicon cells: possess anti-DENV activity
Modoc (MODV) strain M544
  EC50: 730 nM
JEV strain SA-14 [6]
  EC50: 100 to 1000 nM
TBEV strain Oshima 5-10 [7]
  EC50: 100 to 1000 nM
JEV strain SA-14 [8]; read-out: EC50, JEV, viral titer reduction assay
  EC50: 300 nM
JEV strain SA-14 [8]; read-out: EC50, JEV, viral titration on BHK21 cells
  EC50: 300 nM
TBEV strain Oshima 5-10 [9]; read-out: EC50, TBEV, viral titer reduction assay
  EC50: 200 nM
TBEV strain Oshima 5-10 [9]; read-out: EC50, TBEV, viral titration on BHK21 cells
  EC50: 200 nM
[10]
  EC50: ~1500 nM
[11]
  EC50: > 6000 nM
Poliovirus 1 (Sb-1)
  EC50: > 6000 nM
Herpesvirus 1 (HSV-1)
  EC50: > 6000 nM
Vaccinia Virus (VV)
  EC50: > 6000 nM
[12]
  EC50: > 6000 nM
[13]
  EC50: > 6000 nM
Reovirus-1 (Reo-1)
  EC50: > 1500 nM
[14]
  concentration required to reduce the viability of MDBK cells by 50%: 11 µM
[15]
  concentration required to reduce the viability of VERO 76 monolayers by 50%: 6 µM
[16]
  concentration required to reduce the viability of BHK monolayers by 50%: 1.5 µM
[17]
  dose that can be safely employed: up to 10 times the highest FDA-approved dose of 200 μg/kg
